Test results from patent US9850227B2 (YUHAN CORPORATION, priority 2011, dated 2017).
Structures can show the parent of a compound that is named as a salt.

Target: T1, human 5-HT4(a) (Homo sapiens, UniProt Q13639)
T1 construct: host or cells: GeneBIAzer HTR4-CRE-bla CHO-K1 cells
Assay: Evaluation of agonistic activity in CHO-K1 cells expressing human 5-HT4(a) (GeneBIAzer HTR4-CRE-bla CHO-K1 cells, beta-lactamase fluorescence ratio, EC50 from 8 concentrations)
Type: cell-based
Protocol: Evaluation of Agonistic Activity in CHO-K1 Cells Expressing Human 5-HT4(a)
As CHO-K1 cells stably expressing human 5-HT4(a), we used the GeneBIAzer HTR4-CRE-bla CHO-K1 cells (Invitrogen Corp.). The cells were cultured, under the condition of 37° C. and 5% CO2, in a DMEM supplemented with 10% fetal bovine serum (FBS), 25 mM HEPES (pH7.4), 600 μg/ml hygromycin B, 0.1 mM non-essential amino acids, 100 unit/ml penicillin and 100 μg/ml streptomycin. Subcultures were performed three times per one week, each being at less than 80% confluence. At the previous day before treating test compounds, the cells were collected using 0.5% trypsin/EDTA and then diluted with a DMEM supplemented with 1% FBS, 25 mM HEPES, and 0.1 mM non-essential amino acids into 3.125×10^5 cells/ml. 32 μl of the diluted cells were added into 384-well plate (10^4 cells per well) and then incubated overnight. After the overnight culture, 8 μl of the medium having 1% of DMSO was added into the cell-free control well and the non-stimulating control well, respectively. 8 μl of the respective test compound dilutions (which had been prepared by diluting by 100-times with the medium as mentioned in the above) having 1% of DMSO were added to the respective remaining wells. After being cultured in the incubator for 5 hours, the wells of the 384-plate were treated with the substrate solution (8 μl per well) prepared according to the vendor's instruction (i.e., Invitrogen's instruction), and then incubated in the dark room for additional two hours. Agonistic activities on 5-HT4 receptor were evaluated, on the basis of fluorescence values of the cleavage-products by beta-lactamase. After exciting to 410 nm of wavelength using a fluorescence detector (Genios Pro), we measured the fluorescence values at two emission wavelengths (first wavelength: 465 nm, second wavelength: 535 nm). Data were analyzed on the basis of the ratio of fluorescence intensities of each well at the respective wavelengths. Each EC50 value was calculated by non-linear regression analysis using the “GraphPad Prism” program, based on the activities according to 8-different concentrations of the test compounds.

T1 sequence (Q13639 1-387 isoform Q13639-2): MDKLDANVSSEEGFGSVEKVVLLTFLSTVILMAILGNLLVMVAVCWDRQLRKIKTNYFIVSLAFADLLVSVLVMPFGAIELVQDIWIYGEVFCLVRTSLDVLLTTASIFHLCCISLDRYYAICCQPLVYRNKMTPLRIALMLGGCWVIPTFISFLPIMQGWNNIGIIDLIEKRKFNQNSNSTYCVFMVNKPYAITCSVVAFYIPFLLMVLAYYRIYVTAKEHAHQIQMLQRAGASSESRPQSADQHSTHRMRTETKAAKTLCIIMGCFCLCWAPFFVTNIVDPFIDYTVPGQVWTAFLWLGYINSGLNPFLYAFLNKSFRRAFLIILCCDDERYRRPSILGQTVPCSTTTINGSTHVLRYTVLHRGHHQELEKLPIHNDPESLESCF

| EC50 [nM] | SMILES |
| --- | --- |
| 0.015 | CCCc1cc(N2CCC[C@@H](NCC(C)C)C2)nc(Nc2ccc(C)c(C#N)c2)n1 [Example 209, (R)-5-{4-[3-(isobutylamino)piperidin-1-yl]-6-propylpyrimidin-2-ylamino}-2-methylbenzonitrile] |
| 0.27 | CCCc1cc(N2CCOCC2)nc(Nc2ccc(F)c([N+](=O)[O-])c2)n1 [Example 84, N-(4-fluoro-3-nitrophenyl)-4-morpholino-6-propylpyrimidin-2-amine hydrochloride] |
| 0.063 | CCCc1cc(N2CCCCC2CCO)nc(Nc2ccc3cc[nH]c3c2)n1 (stereo not shown) [Example 74, 2-{1-[2-(1H-indol-6-ylamino)-6-propylpyrimidin-4-yl]piperidin-2-yl}ethanol] |
| 0.46 | CCCc1cc(N2CCCC3CCCCC32)nc(Nc2ccc(Cl)c([N+](=O)[O-])c2)n1 (stereo not shown) [Example 190, N-(4-chloro-3-nitrophenyl)-4-(octahydroquinolin-1(2H)-yl)-6-propylpyrimidin-2-amine] |
| 0.046 | CCCc1cc(N2CCC[C@H](NCc3ccc[nH]3)C2)nc(Nc2ccc(C)c(C#N)c2)n1 [Example 159, (S)-5-(4-{3-[(1H-pyrrol-2-yl)methylamino]piperidin-1-yl}-6-propylpyrimidin-2-ylamino)-2-methylbenzonitrile] |
| 0.047 | CCCc1cc(N2CCC[C@@H](NC)C2)nc(Nc2ccc(C)c(N)c2)n1 [Example 310, (R)-4-methyl-N^1-{4-[3-(methylamino)piperidin-1-yl]-6-propylpyrimidin-2-yl}benzene-1,3-diamine] |
| 0.077 | CCCc1cc(N2CCNC[C@H]2C)nc(Nc2ccc(Cl)c([N+](=O)[O-])c2)n1 [Example 117, (R)-N-(4-chloro-3-nitrophenyl)-4-(2-methylpiperazin-1-yl)-6-propylpyrimidin-2-amine] |
| 0.014 | CCCc1cc(N2CCC[C@@H](NC(C)=O)C2)nc(Nc2ccc(F)c(C(F)(F)F)c2)n1 [Example 277, (R)—N-{1-[2-(4-fluoro-3-trifluoromethylphenylamino)-6-propylpyrimidin-4-yl]piperidin-3-yl}acetamide] |
| 0.012 | CCCCc1cc(N2CCCC(NC(C)=O)C2)nc(Nc2ccc(C)c(C#N)c2)n1 (stereo not shown) [Example 298, N-{1-[6-butyl-2-(3-cyano-4-methylphenylamino)pyrimidin-4-yl]piperidin-3-yl}acetamide hydrochloride] |
| 0.038 | CCCc1cc(N2CCC[C@@H](NC(=O)CO)C2)nc(Nc2ccc(C)c(C(F)(F)F)c2)n1 [Example 254, (R)-2-hydroxy-N-(1-{2-[4-methyl-3-(trifluoromethyl)phenylamino]-6-propylpyrimidin-4-yl}piperidin-3-yl)acetamide] |
| 0.02 | CCCc1cc(N2CCC[C@@H](N)C2)nc(Nc2ccc(C)c(C#N)c2)n1 [Example 153, (R)-5-[4-(3-aminopiperidin-1-yl)-6-propylpyrimidin-2-ylamino]-2-methylbenzonitrile] |
| 0.025 | CCCc1cc(N2CCC[C@@H](NC(C)=O)C2)nc(Nc2ccc(F)c(C#N)c2)n1 [Example 268, (R)—N-{1-[2-(3-cyano-4-fluorophenylamino)-6-propylpyrimidin-4-yl]piperidin-3-yl}acetamide] |
| 0.26 | CCCc1cc(N2CCCCC2)nc(Nc2ccc(F)c([N+](=O)[O-])c2)n1 [Example 40, N-(4-fluoro-3-nitrophenyl)-4-(piperidin-1-yl)-6-propylpyrimidin-2-amine] |
| 0.088 | CCCc1cc(N2CCC[C@H](NCC3CC3)C2)nc(Nc2ccc(C)c(C#N)c2)n1 [Example 163, (S)-5-{4-[3-(cyclopropylmethylamino)piperidin-1-yl]-6-propylpyrimidin-2-ylamino}-2-methylbenzonitrile] |
| 0.016 | CCCc1cc(N2CCC[C@@H](NCCCSC)C2)nc(Nc2ccc(C)c(C#N)c2)n1 [Example 216, (R)-2-methyl-5-{4-[3-(3-methylthiopropylamino)piperidin-1-yl]-6-propylpyrimidin-2-ylamino}benzonitrile] |
| 0.188 | CCCc1cc(N2CCC[C@H](N(CC)CC)C2)nc(Nc2ccc(C)c(C#N)c2)n1 [Example 165, (S)-5-[4-(3-diethylaminopiperidin-1-yl)-6-propylpyrimidin-2-ylamino]-2-methylbenzonitrile] |
| 0.112 | CCCCc1cc(N2CCC[C@@H](N)C2)nc(Nc2ccc(N)c(C(F)(F)F)c2)n1 [Example 340, (R)—N^1-[4-(3-aminopiperidin-1-yl)-6-butylpyrimidin-2-yl]-3-(trifluoromethyl)benzene-1,4-diamine] |

| EC50 [nM] | SMILES |
| --- | --- |
| 0.12 | CCCc1cc(N2CCCCC2CC)nc(Nc2ccc3cc[nH]c3c2)n1 (stereo not shown) [Example 78, N-[4-(2-ethylpiperidin-1-yl)-6-propylpyrimidin-2-yl]-1H-indol-6-amine] |
| 0.337 | CCCCc1cc(N2CCC[C@@H](N)C2)nc(Nc2ccc(Cl)c([N+](=O)[O-])c2)n1 [Example 353, (R)-4-(3-aminopiperidin-1-yl)-6-butyl-N-(4-chloro-3-nitrophenyl)pyrimidin-2-amine] |
| 0.084 | CCCc1cc(N2CCC[C@@H](N)C2)nc(Nc2ccc(F)c(N)c2)n1 [Example 259, (R)—N^1-[4-(3-aminopiperidin-1-yl)-6-propylpyrimidin-2-yl]-4-fluorobenzene-1,3-diamine] |
| 0.027 | CCCc1cc(N2CCCCC2CCO)nc(Nc2ccc(N)c(C#N)c2)n1 (stereo not shown) [Example 179, 2-amino-5-{4-[2-(2-hydroxyethyl)piperidin-1-yl]-6-propylpyrimidin-2-ylamino}benzonitrile] |
| 0.105 | CCCc1cc(N2CCC[C@@H](N)C2)nc(Nc2ccc(N)c(C#N)c2)n1 [Example 261, (R)-2-amino-5-{[4-(3-aminopiperidin-1-yl)-6-propylpyrimidin-2-yl]amino}benzonitrile] |
| 0.014 | CCCc1cc(N2CCC[C@@H](NC(C)=O)C2)nc(Nc2ccc(N)c(C(F)(F)F)c2)n1 [Example 279, (R)—N-(1-{2-[4-amino-3-(trifluoromethyl)phenylamino]-6-propylpyrimidin-4-yl}piperidin-3-yl)acetamide] |
| 0.051 | CCCc1cc(N2CCNC[C@H]2C)nc(Nc2ccc(F)c(C#N)c2)n1 [Example 125, (R)-2-fluoro-5-[4-(2-methylpiperazin-1-yl)-6-propylpyrimidin-2-ylamino]benzonitrile] |
| 0.093 | CCCCCN[C@H]1CCCN(c2cc(CCC)nc(Nc3ccc(C)c(C#N)c3)n2)C1 [Example 155, (S)-5-{4-[3-(pentylamino)piperidin-1-yl]-6-propylpyrimidin-2-ylamino}-2-methylbenzonitrile] |
| 0.047 | CCCc1cc(N2CCC[C@@H](NC(=O)CO)C2)nc(Nc2cccc(C#N)c2)n1 [Example 245, (R)—N-{1-[2-(3-cyanophenylamino)-6-propylpyrimidin-4-yl]piperidin-3-yl}-2-hydroxyacetamide] |
| 0.012 | CCCc1cc(N2CCC[C@@H](N)C2)nc(Nc2cc(N)cc(C(F)(F)F)c2)n1 [Example 256, (R)—N^1-[4-(3-aminopiperidin-1-yl)-6-propylpyrimidin-2-yl]-5-(trifluoromethyl)benzene-1,3-diamine] |
| 0.0067 | CCCCc1cc(N2CCC[C@@H](NC)C2)nc(Nc2ccc(N)c(C#N)c2)n1 [Example 316, (R)-2-amino-5-({4-butyl-6-[3-(methylamino)piperidin-1-yl]pyrimidin-2-yl}amino)benzonitrile] |
| 0.0028 | CCCc1cc(N2CCC[C@@H](NCC)C2)nc(Nc2ccc(N)c(C(F)(F)F)c2)n1 [Example 291, (R)—N^1-[4-(3-ethylaminopiperidin-1-yl)-6-propylpyrimidin-2-yl]-3-(trifluoromethyl)benzene-1,4-diamine] |
| 0.0044 | CCCc1cc(N2CCC[C@@H](NC)C2)nc(Nc2cc(N)cc(C#N)c2)n1 [Example 286, (R)-3-amino-5-[4-(3-methylaminopiperidin-1-yl)-6-propylpyrimidin-2-ylamino]benzonitrile] |
| 0.34 | CCCc1cc(N2CCCC3CCCCC32)nc(Nc2cccc(OC)c2)n1 (stereo not shown) [Example 191, N-(3-methoxyphenyl)-4-(octahydroquinolin-1(2H)-yl)-6-propylpyrimidin-2-amine] |
| 0.013 | CCCc1cc(N2CCNC[C@H]2C)nc(Nc2ccc(C)c(C#N)c2)n1 [Example 126, (R)-2-methyl-5-[4-(2-methylpiperazin-1-yl)-6-propylpyrimidin-2-ylamino]benzonitrile] |
| 0.086 | CCCCc1cc(N2CCC[C@@H](NC)C2)nc(Nc2ccc(C)c(C)c2)n1 [Example 330, (R)-4-butyl-N-(3,4-dimethylphenyl)-6-[3-(methylamino)piperidin-1-yl]pyrimidin-2-amine] |
| 0.023 | CCCCc1cc(N2CCC[C@@H](N)C2)nc(Nc2ccc(C)c(C#N)c2)n1 [Example 293, (R)-5-[4-(3-aminopiperidin-1-yl)-6-butylpyrimidin-2-ylamino]-2-methylbenzonitrile] |
